Experimental data: ChEMBL document CHEMBL1147259, “The structure of Palau'amide, a potent cytotoxin from a species of the marine cyanobacterium Lyngbya” (J Nat Prod, 2003)

System: KB
Assay: Cytotoxicity against human KB cells
Assay type: functional, cell-based

C#CCCC[C@@H](O)[C@@H](C)[C@@H]1C/C=C(\C)C(=O)O[C@H](CC(C)C)C(=O)N[C@@H](C)C(=O)N(C)[C@H](Cc2ccccc2)C(=O)N(C)CC(=O)N[C@H]([C@H](C)CC)C(=O)N(C)[C@@H](C)C(=O)O1 [PALAU'AMIDE] gave an IC50 of 0.013 µM.
